Data on 17 molecules can be found in ChEMBL document CHEMBL6087396, “Perspective for Drug Discovery Targeting SARS Coronavirus Methyltransferases: Function, Structure and Inhibition” (J Med Chem, 2024).

The target of test [1] is Replicase polyprotein 1ab. Briefly: Inhibition of N-terminal 6His-tagged SARS-CoV nsp14 extracted from Escherichia coli.
In test [2] the test system is SARS-CoV-2. The experiment in a line: Antiviral activity against SARS-CoV-2 infected in African green monkey Vero E6 cells assessed as inhibition of viral growth incubated for 72 hrs by plaque assay. It is filed as functional, organism-based. As to conditions: Severe acute respiratory syndrome coronavirus 2, Vero C1008, 72 h.
Test [3] has as its target T1, Replicase polyprotein 1ab (Severe acute respiratory syndrome coronavirus 2, UniProt P0DTD1). The experiment in a line: Binding affinity to SARS-CoV-2 nsp14 assessed as inhibition constant.
Test [4] deals with T1, Replicase polyprotein 1ab. The experiment in a line: Binding affinity to SARS-CoV-2 nsp14 assessed as dissociation constant.

`Cc1cc(=O)oc2cc(NC(=O)[C@H]3O[C@@H](n4cc(C#Cc5cncnc5)c5c(N)ncnc54)[C@H](O)[C@@H]3O)ccc12`: in test [1], the concentration for half-maximal inhibition (IC50) (as a rule, the midpoint of a concentration-inhibition curve) was determined as 31000 nM. In the case of `O=C(O)C1=CC(=C(c2ccc(O)c(C(=O)O)c2)c2ccc(O)c(C(=O)O)c2)C=CC1=O` [AURINTRICARBOXYLIC ACID], in test [2], the half-maximal effective concentration (EC50) (as a rule, the concentration giving half of the maximal effect) was found to be 0.47 nM. Regarding `CC(C)N(CCCNC(=O)Nc1ccc(C(C)(C)C)cc1)C[C@H]1O[C@@H](n2cc(Br)c3c(N)ncnc32)[C@H](O)[C@@H]1O`, the inhibition constant Ki (as a rule, a dissociation constant, usually derived from enzyme kinetics or from competition with a known ligand) in test [3] worked out at 8000 nM. Molecule `CC1=C(C)C(=O)C(C(C)(C)CC(=O)N(CCCCSC[C@H]2O[C@@H](n3cnc4c(N)ncnc43)[C@H](O)[C@@H]2O)Cc2cccc(-c3ccc(Cl)cc3)c2)=C(C)C1=O` had a concentration for half-maximal inhibition (IC50) in test [1] of 1100 nM.

`NC[C@@H](CC[C@H](N)C(=O)O)C[C@H]1O[C@@H](n2cnc3c(N)ncnc32)[C@H](O)[C@@H]1O`: in test [1], the 50% inhibitory concentration (IC50) turned out to be 1100 nM. The dissociation constant (Kd) (usually the equilibrium constant for the complex coming apart) in test [4] amounted to 1.6 nM. With `Nc1ncnc2c1ncn2[C@@H]1O[C@H](CSCCCCNCc2cccc(-c3ccc(Cl)cc3)c2)[C@@H](O)[C@H]1O`, the Ki in test [3] was 6000 nM.

In the case of `Nc1ncnc2c1ncn2[C@@H]1O[C@H](CNS(=O)(=O)c2ccc3ccccc3c2)[C@@H](O)[C@H]1O`, in test [1], the midpoint of inhibition, the IC50, lay at 93000 nM. Regarding `Nc1ncnc2c1c(C#Cc1cnc3ccccc3c1)cn2[C@@H]1O[C@H](CSCC[C@H](N)C(=O)O)[C@@H](O)[C@H]1O`, the half-maximal inhibitory concentration (IC50) in test [1] was 3 nM. Moreover, the Kd in test [4] worked out at 25.2 nM. Regarding `CC(=O)c1cc(O)c2ccccc2c1O`, the EC50 in test [2] came to 8.5 nM. In the case of `N#Cc1ccc(N2N=C3c4ccc(C(=O)O)cc4CC[C@@H]3[C@@H]2C2CCCC2)cc1Cl` [PF-03882845], the EC50 in test [2] came to 11 nM. In test [1], `Nc1ncnc2c1ncn2[C@@H]1O[C@H](CSCC[C@H](N)C(=O)O)[C@@H](O)[C@H]1O` [S-ADENOSYLHOMOCYSTEINE] registered an IC50 of 16000 nM. Consider `CCN(C[C@H]1O[C@@H](n2cnc3c(N)ncnc32)[C@H](O)[C@@H]1O)S(=O)(=O)c1ccc(Cl)c(C#N)c1`, for which, in test [2], the concentration giving a half-maximal response (EC50) came to 1.9 nM. In test [1], `COc1ccc(S(=O)(=O)N(C)C[C@H]2O[C@@H](n3cc(C#Cc4cnc5ccccc5c4)c4c(N)ncnc43)[C@H](O)[C@@H]2O)cc1C#N` came in with an IC50 of 720 nM. On the same count and under the same terms, with `Nc1ncnc2c1ncn2[C@@H]1O[C@H](CN(CCO[C@@H]2[C@H](O)[C@@H](CO)O[C@H]2n2cnc3c(N)ncnc32)S(=O)(=O)c2ccc(Cl)c([N+](=O)[O-])c2)[C@@H](O)[C@H]1O` the figure was 600 nM. Consider `O=c1c2ccccc2[se]n1-c1ccccc1` [EBSELEN], for which the EC50 in test [2] worked out at 34 nM. For the molecule `O=c1nc2n(CCO)c3ccccc3nc-2c(=O)n1-c1ccccc1`, in test [2], the concentration giving a half-maximal response (EC50) stood at 5.7 nM. For the molecule `Nc1ncnc2c1ncn2[C@@H]1O[C@H](CSCc2cc(C(=O)O)cc(-c3ccccc3)c2)[C@@H](O)[C@H]1O`, inhibition in test [1] was half-maximal at 580 nM (IC50).
